In one test the test system is vaginal epithelial cells. Description: Effect on mitosis of vaginal epithelial cells in mice. The format is in vivo. Particulars: 15 mg/kg by gavage, once a day for 3 days; mitoses per 100 fundus cells. The method, then:
60 female NIH mice of 27 g±2 g were selected. After being intraperitoneally injected with diethylstilbesrolum for 3 days continuously, 0.2 mg/day for each animal, all the mice were left in estrum interval. From the 4th day, the mice were randomly divided into four groups, 15 mice each. The mice of the four groups were administrated for three days by gavage with 150 mg/kg of total coumarins, 75 mg/kg of total coumarins, 15 mg/kg of anthralin and 15 ml/kg of physiological saline, respectively, once one day. The last administration was carried out at 8:00 am in order to avoid the interference of various administration rhythms between day and night in the mice to the test result. At 9:00 am, 2 mg/kg of colchicine was injected to the mice to make the mitosis of vaginal epithelial cells stopped at the middle cycle of M phase.
The mice were killed at 2 pm. A sample from the vagina of the animal was taken out and fixed in a 10% formaldehyde solution. A slice of tissue was observed under an optical microscope. The number of mitosis per 300 fundus cells was counted to obtain an average number of mitosis among 100 fundus cells, which was regarded as the index of mitosis of vaginal epithelial cells.

In test [1] the test system is passive cutaneous anaphylaxis (PCA) of rats. Description: Inhibition of passive cutaneous anaphylaxis (PCA) of rats. The test is classed as in vivo. Particulars: 15 mg/kg by gavage, 3 days. The method, then:
Hair on the back of 40 SD rats, 180 g±10 was shaved off. 0.2 ml of a diluted rat-antiserum (1:10) was hypodermically injected into each rat through two places on the back, 0.1 ml for each place. After being injected, the rats were di vided randomly into four groups, which were administered by gavage with 75 mg/kg of total coumarins, 150 mg/kg of total coumarins, 15 mg/kg of anthralin and 15 ml/kg of distilled water for 3 days, once per day. After the injection with the rat-antiserum 48 hours, 1 ml of 0.5% evans blue, […], was intravenously injected into the rats through the caudal vein. The rats were killed in 20 minutes. A piece of skin with blue speckles was taken out from the back, and immersed in 5 ml solution of acetone/physiological saline (acetone:physiological saline=7-3 v/v) for 24 hs. After centrifugation; the supernatant was taken for measuring the optical density (OD) at 590 nm. Inhibition rate was obtained in accordance with the following equation. […] Inhibition (%)=[OD(control)−OD(drug)]×100%/OD(control)

The source of these data is patent publication US10383843B2, “Use of total coumarins of cnidium fruit in preparing medicaments for treating psoriasis” (priority 2013, dated 2019).

A word on the inhibition: it is the drop in the measured response relative to a control, in per cent. A lower inhibition goes with a response near the control. In the case of `O=C1c2c(O)cccc2Cc2cccc(O)c21` [Anthralin, anthralin], the “Index of Mitosis %” value with vaginal epithelial cells came out at 13.4 ± 2.1 %. In addition, the OD in test [1] (OD at 590 nm of evans blue skin extract) is on record as 0.043 ± 0.25. In test [1] (Rattus norvegicus, po, 72 h), this molecule came in with an inhibition at 15 mg/kg of 51.7%.
